# Assay results taken from patent US7135468B2, “Antibacterial compounds” (Abbott Laboratories, priority 2004, dated 2006).
# Target: bacterial protein synthesis (S30 Streptococcus pneumoniae extract)
# Assay: Translation assay, firefly luciferase reporter system with S30 Streptococcus pneumoniae extract
# Type: biochemical, Streptococcus pneumoniae ATCC 46919
# Details: cell-free S30 extract from quinolone-susceptible S. pneumoniae ATCC 46919, luciferase mRNA; read-out: IC50, concentration causing 50% inhibition of bacterial protein synthesis
# Method: Bacterial protein synthesis inhibitory activity of representative compounds of this invention having formula (I) and the commercially-available antibacterials in TABLE 2 was determined by translation assays using the firefly luciferase reporter system described by Murray et al., (2001), “Staphylococcus aureus Cell Extract Transcription-Translation Assay: Firefly Luciferase Reporter System for Evaluating Protein Translation Inhibitors,” Antimicrob. Agents Chemother. 45(6): 1900–1904, but replacing the Staphylococcus aureus S30 extract described therein with S30 Streptococcus pneumoniae extract from quinolone-succeptable Streptococcus pneumoniae ATCC 46919, and replacing plasmid coding for the luciferase gene with mRNA (encoding produced by in an in vitro environment transcription from the plasmid pAS10rbs3) which encoded the luciferase gene with an upstream Streptococcus pneumoniae promoter and Shine-Dalgarno site.
compound,measurement,value
CC(=O)NC[C@H]1CN(c2ccc(N3CCOCC3)c(F)c2)C(=O)O1 [Linezolid],IC50,~3000 nM
